Measurements published in US20160045531A1, “COMBINATION THERAPY FOR TREATING CANCER” (EPIZYME, INC., priority 2014, published 2016).

What was measured:
[1] = system: SKM-1 (non-MLL-rearranged AML); assay: Combination proliferation study with Compound A2 (Examples 2/3), SKM-1; type: cell-based, human
Method: (§1) The HP-D300 digital dispenser (Tecan) was used to dispense compounds in a combinatorial matrix. […] Cell viability was measured via ATP content using CellTiter-Glo® (Promega).
(§2) Viability was determined using CellTiter-Glo® (Promega).

[2] = system: MV4-11 (MLL-AF4); assay: Proliferation assay and calculation of synergism (Example 5), MV4-11; type: cell-based, human; conditions: 7 Day Cotreatment Model; Chou-Talalay CI
Method: MV4-11 cells were maintained in IMDM supplemented with 10% fetal bovine serum. […] They were cultured in flasks or plates in a humidified 5% CO2 atmosphere.
(§4) Proliferation studies were performed using MOLM-13, MV4-11 and SKM-1 cell lines in vitro to evaluate the cancer cell killing effect of a combination of two agents together on cell growth. Initial proliferation studies were performed to determine the IC50 values of a given compound in each cell line. The cell counts were measured by ATP quantitation using the Promega Cell Titer Glo kit and luminescence values correspond to the amount of ATP in a given well.
(§5) These studies were performed to evaluate both the combinatorial effect of compounds on cell killing and the durability of the effect by washing out one of the agents.
(§6) Compounds evaluated for synergy in the co-treatment phase were tested in a range which was bracketed around the IC50's. The compounds were plated to a 96 well plate in a matrix format which includes increasing concentrations of each drug in the combination in a constant ratio, in addition to the effect of each compound alone in the study. […] Maximum and minimum inhibition (DMSO alone) controls were used in each plate to calculate fraction affected (Fa) of a test well. DMSO concentration was kept at 0.1% v/v. The drug combination analysis was performed utilizing the Chou-Talalay method. Synergy was determined using the software package Calcusyn by Biosoft. The combination index (CI) is the term used to describe the level of synergy or antagonism in a given test system. A combination index less than one indicates synergy, and a CI greater than one indicates antagonism.
(§7) The drug combination analysis was performed using the Chou-Talalay method. Graphs representing values of combination index (CI) versus Fractional effect (Fa) known as Fa-CI plots were generated and synergy was evaluated. Drug synergy was statistically defined by CI values less than 1, antagonism by CI>1 and additive effect by CI equal to 1.

[3] = system: MV4-11 (MLL-AF4 expressing acute biphenotypic leukemia cell line); assay: Combination proliferation study with Compound A2 (Examples 2/3), MV4-11; type: cell-based, human; conditions: in combination with Compound A2; Chou-Talalay CI
Method: as §1, §2

[4] = system: MOLM-13 cells; assay: Pre-treatment model with reverse order of addition (Ara-C first), MOLM-13; type: cell-based, human; conditions: Ara-C 3 days
Method: MOLM-13 cells were pretreated with 9 concentrations of Ara-C or DMSO for 3 days.
Cell viability was measured via ATP content using CellTiter-Glo® (Promega).
In addition, the effect of sequence of addition of compounds was studied by measuring the ten day proliferation of cells pretreated with Ara-C in a 3+7 model. This experiment was performed by first pretreating MOLM-13 cells with increasing concentrations of Ara-C for 3 days.

[5] = system: MOLM-13 cells; assay: Flow cytometric analysis of cell cycle and Annexin V, MOLM-13; type: cell-based, human; conditions: for Apoptosis induction over 14 day course, single agent / Sub-G1 cell population, single agent: 156 nM Compound A2 or 63 nM Ara-C; for Sub-G1 cell population, single agent: 14 day treatment
Method: (§3) On Day 0 MOLM-13 cells are seeded at 3,000 cells/mL. On Day 7 and Day 10 MOLM-13 cells are counted and reseeded at 50,000 cells/mL. […] On Day 10 They were redosed again. On Day 14 the experiment was terminated.
To evaluate the fraction of cells in each cell cycle, flow cytometric analysis was performed. FACS analysis for detection of cell death by apoptosis, and cell cycle was performed.
Samples were analyzed using the Guava EasyCyte Plus System (Millipore). Cells for cell cycle analysis were pelleted by centrifugation at 200×g for 5 minutes at 4° C., washed twice with ice cold PBS then fixed with 70% ice cold ethanol. All samples were analyzed together at end of experiment. Following fixation cells were washed with PBS and stained with the Guava cell cycle reagent (Millipore 4500-0220) for 30 minutes. Samples were analyzed using the Guava EasyCyte Plus System (Millipore).

[6] = system: MV4-11 (MLL-AF4) cell line; assay: Combination proliferation study with Compound A2 (Example 1), MV4-11; type: cell-based, human; conditions: 7 Day Cotreatment; Chou-Talalay CI
Text: The acute myelogenous leukemia cell lines MV4-11 (MLL-AF4) and MOLM-13 (MLL-AF9) were obtained from American Type Culture Collection (ATCC; Rockville, Md.) and Deutsche Sammlung von Mikroorganismen and Zellkulturen (DSMZ; Braunschweig, Germany) respectively. […] Further, strong synergism is achieved when the CI value falls below 0.3.

[7] = system: MOLM-13 cells; assay: CD11b and CD14 expression by flow cytometry, MOLM-13; type: cell-based, human
Method: as §3
The cells were prepared by washing twice in PBS, followed by fixation in 4% formaldehyde for ten minutes at 37° C. After fixation cells were washed and blocked with blocking buffer for 10 minutes at room temperature. Cells were then incubated in presence of anti-CD14, anti-CD11b or anti-IgG antibody for 1 hour at room temperature while rotating. Cells were washed, re-suspended in PBS and 5,000 events were analyzed using ExpressPro software on the GuavaCyte Plus System.

[8] = system: H3K79me2; conditions: cited from earlier work
[9] = system: rat xenograft model of MLL-rearranged leukemia; conditions: cited from earlier work
[10] = system: acute leukemia lines bearing MLL translocations; conditions: sparing lines without MLL gene translocations; cited from earlier work
[11] = system: SKM-1 cells; assay: Proliferation assay and calculation of synergism (Example 5), SKM-1; conditions: non-MLL-rearranged leukemia cell line SKM-1
Text: The acute myelogenous leukemia cell line MV4-11 (MLL-AF4) (CRL-9591) was obtained from American Type Culture Collection (ATCC), Manassas, Va. and both MOLM-13 (MLL-AF9) (ACC 554) and SKM-1 (ACC 547) cells were obtained from Leibniz Institute DSMZ-German Collection of Microorganisms and Cell Cultures, Braunschweig, Germany. MV4-11 cells were maintained in IMDM supplemented with 10% fetal bovine serum. MOLM-13 and SKM-1 cells were maintained in Roswell Park Memorial Institute medium (RPMI) supplemented with 10% fetal bovine serum. They were cultured in flasks or plates in a humidified 5% CO2 atmosphere.
as §4, §5, §6, §7

What does the source list for `Nc1ccn([C@@H]2O[C@H](CO)[C@@H](O)[C@@H]2O)c(=O)n1` [Ara-C, cytarabine]?
Combination studies with Compound A2, SKM-1 AML: Non-rearranged ([1]; in combination with Compound A2): No Combination; Combination with Compound A2, MV4-11 (MLL-AF4) [2]: Strong Synergy; Combination studies with Compound A2, MV4-11 MLL-AF4 [3]: Strong; Combination with Compound A2, Ara-C pretreatment then cotreatment ([4]; then Compound A2 and Ara-C 7 days): Synergy; Combination with Compound A2, Ara-C pretreatment then washout ([4]; washed out, then Compound A2 7 days): Combination benefit is maintained; Apoptosis induction over 14 day course, single agent ([5]; MOLM-13): modest increase in apoptotic cell population; Apoptosis induction over 14 day course, combination with Compound A2 ([5]; MOLM-13, 156 nM Compound A2 plus 63 nM Ara-C): enhance apoptosis; Sub-G1 cell population, combination with Compound A2 ([5]; MOLM-13, 156 nM Compound A2 plus 63 nM Ara-C, 10 and 14 days): significant increase in the population of sub-G1 cells; Sub-G1 cell population, single agent ([5]; MOLM-13): minimal effect; Combination effect with Compound A2 on proliferation, MV4-11 [6]: Synergy (A combination index less than one indicates synergy); Differentiation markers CD11b and CD14, combination with Compound A2 [7]: time and concentration dependent up-regulation; Differentiation markers CD11b and CD14, single agent [7]: time and concentration dependent up-regulation

Which results are given for `CC(C)N(C[C@H]1O[C@@H](n2cnc3c(N)ncnc32)[C@H](O)[C@@H]1O)[C@H]1C[C@@H](CCc2nc3cc(C(C)(C)C)ccc3[nH]2)C1` [Compound A2, (2R,3R,4S,5R)-2-(6-amino-9H-purin-9-yl)-5-((((1r,3S)-3-(2-(5-(tert-butyl)-1H-benzo[d]imidazol-2-yl)ethyl)cyclobutyl) (isopropyl)amino)methyl) tetrahydrofuran-3,4-diol]?
Single agent antiproliferative effect in SKM-1 ([1]; non-rearranged SKM-1 cell line): no effect alone; Inhibition of intracellular DOT1L activity (H3K79 methylation) ([8]; across a spectrum of AML cell lines): concentration-dependent inhibition of H3K79 methylation; Time for H3K79me2 to return to pretreatment levels after the latency period ([8]; after the 3-day latency period): 4 days; Period without recovery of H3K79 methylation after wash out ([8]; after wash out of Compound A2): 3 days; Depletion of cellular levels of H3K79me2 ([8]; four days of treatment): > 80%; Tumor response in xenograft [9]: sustained tumor regressions; Cell killing in vitro [10]: promoted cell killing; Single agent antiproliferative activity in SKM-1 [11]: no single agent activity; EC50 ([5]; Homo sapiens, 168 h, MOLM-13, single agent, 7 days, Annexin-V staining, read-out: Midpoint value (EC50) of decrease in total content of viable cells): 364 ± 18 nM; Apoptotic cells (Annexin-V staining), single agent ([5]; MOLM-13, after 7 days of treatment): concentration-dependent increase in apoptotic cells; Apoptosis induction over 14 day course, single agent ([5]; MOLM-13): much more robust induction of apoptosis; Sub-G1 cell population, single agent ([5]; MOLM-13): moderate, time-dependent increase in sub-G1 population; Differentiation markers CD11b and CD14, single agent [7]: time and concentration dependent up-regulation
